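Cells were grown in 96-well plates and exposed to each compound for 48 hours at five concentrations; endpoints were interpolated linearly between bracketing concentrations, or set to the highest concentration if not reached. The concentration for full growth arrest is given as TGI.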
How the values were obtained:
Test in all cases: inhibition of tumour cell growth, NCI panel, 48 h
SK-MEL-5 melanoma = system: SK-MEL-5 melanoma
HCT-116 colon = system: HCT-116 colon
HOP-62 NSCLC = system: HOP-62 NSCLC
K-562 leukemia = system: K-562 leukemia
UO-31 renal = system: UO-31 renal
RPMI-8226 leukemia = system: RPMI-8226 leukemia
HL-60(TB) leukemia = system: HL-60(TB) leukemia
SK-MEL-28 melanoma = system: SK-MEL-28 melanoma
ACHN renal = system: ACHN renal
KM12 colon = system: KM12 colon
COLO 205 colon = system: COLO 205 colon
SF-268 CNS = system: SF-268 CNS
TK-10 renal = system: TK-10 renal
BT-549 breast = system: BT-549 breast
CCRF-CEM leukemia = system: CCRF-CEM leukemia
UACC-257 melanoma = system: UACC-257 melanoma
T-47D breast = system: T-47D breast

Compound	TGI (SK-MEL-5 melanoma)	TGI (HCT-116 colon)	TGI (HOP-62 NSCLC)	TGI (K-562 leukemia)	TGI (UO-31 renal)	TGI (RPMI-8226 leukemia)	TGI (HL-60(TB) leukemia)	TGI (SK-MEL-28 melanoma)	TGI (ACHN renal)	TGI (KM12 colon)	TGI (COLO 205 colon)	TGI (SF-268 CNS)	TGI (TK-10 renal)	TGI (BT-549 breast)	TGI (CCRF-CEM leukemia)	TGI (UACC-257 melanoma)	TGI (T-47D breast)
NC(=O)CCC(NC(=O)c1cccc2c(=O)c3ccccc3[nH]c12)C(=O)O (centres undefined)	> 100 µM	> 100 µM	> 100 µM	> 100 µM	> 100 µM	> 100 µM	> 100 µM	> 100 µM	> 100 µM	> 100 µM	> 100 µM	> 100 µM	> 100 µM	–	–	–	–
O=S(=O)(O)c1cc(Nc2ccnc3ccccc23)c2c(S(=O)(=O)O)cc(S(=O)(=O)O)cc2c1	> 100 µM	> 100 µM	> 100 µM	–	> 100 µM	> 100 µM	–	> 100 µM	–	> 100 µM	> 100 µM	> 100 µM	> 100 µM	> 100 µM	> 100 µM	> 100 µM	> 100 µM
CC1=Nc2c(C#N)ncn2N=C(C)C1	> 100 µM	> 100 µM	> 100 µM	> 100 µM	> 100 µM	> 100 µM	> 100 µM	> 100 µM	> 100 µM	> 100 µM	> 100 µM	> 100 µM	> 100 µM	> 100 µM	> 100 µM	> 100 µM	–
Cc1cc(C)c2c(=N)c3ccccc3n(CCCCCCn3c4ccccc4c(=N)c4c(C)cc(C)nc43)c2n1	3.39 µM	0.353 µM	1.44 µM	> 100 µM	2.91 µM	–	–	2.64 µM	2.91 µM	0.973 µM	–	–	3.19 µM	2.91 µM	0.565 µM	3.06 µM	3.65 µM
CN(C)CCCNc1cnc2cc3ccccc3cc2n1	45 µM	99.3 µM	> 100 µM	70.2 µM	–	82.2 µM	68.3 µM	81.5 µM	> 100 µM	47.4 µM	38.8 µM	77.1 µM	78.2 µM	58.9 µM	88.1 µM	42.5 µM	–
O=C(Cc1ccccc1)N=Nc1c(O)[nH]c2ccccc12	> 100 µM	> 100 µM	> 100 µM	> 100 µM	> 100 µM	–	–	–	> 100 µM	> 100 µM	> 100 µM	70.7 µM	> 100 µM	> 100 µM	> 100 µM	> 100 µM	> 100 µM
O=C1C2=C(CCCCC2)C2CCCCC12O (centres undefined)	–	> 100 µM	> 100 µM	> 100 µM	> 100 µM	> 100 µM	> 100 µM	> 100 µM	> 100 µM	> 100 µM	> 100 µM	> 100 µM	> 100 µM	–	> 100 µM	> 100 µM	–
COC(=O)[C@@]12OC[C@]34C([C@@H](O)C1O)[C@@]1(C)CC(=O)C(O)=C(C)C1C[C@H]3OC(=O)[C@H](OC(=O)/C=C(/c1ccccc1)C(F)(F)F)[C@H]42 (some centres undefined)	13.4 µM	12.3 µM	> 25 µM	> 25 µM	> 25 µM	–	1.41 µM	15.9 µM	17.5 µM	> 25 µM	21.1 µM	> 25 µM	> 25 µM	–	> 25 µM	> 25 µM	–
COc1cccc2c1-c1c(OC)cccc1SS2	26.5 µM	40.4 µM	> 100 µM	> 100 µM	> 100 µM	59.2 µM	7.35 µM	79.4 µM	> 100 µM	> 100 µM	56.6 µM	80 µM	51.1 µM	86.5 µM	–	35.9 µM	–
CNc1ncnc2c1nnn2C	> 100 µM	> 100 µM	> 100 µM	> 100 µM	> 100 µM	> 100 µM	> 100 µM	> 100 µM	> 100 µM	> 100 µM	> 100 µM	–	> 100 µM	–	> 100 µM	> 100 µM	> 100 µM
Cc1ccc(C(=O)C2=CN=C3C(=O)N(c4ccccc4)N(C)C3(C)C2=N)cc1 (centres undefined)	> 100 µM	> 100 µM	–	> 100 µM	> 100 µM	> 100 µM	> 100 µM	–	> 100 µM	> 100 µM	> 100 µM	–	> 100 µM	> 100 µM	> 100 µM	> 100 µM	–
N#Cc1ccc(Nc2cnc3ccc(N)cc3n2)cc1	> 100 µM	> 100 µM	> 100 µM	> 100 µM	> 100 µM	> 100 µM	> 100 µM	> 100 µM	> 100 µM	> 100 µM	> 100 µM	> 100 µM	> 100 µM	–	> 100 µM	> 100 µM	–
CC(C)(C)OC(=O)N1Cc2cc(O)ccc2C[C@H]1C(=O)O	> 100 µM	> 100 µM	> 100 µM	> 100 µM	–	–	> 100 µM	> 100 µM	> 100 µM	> 100 µM	> 100 µM	> 100 µM	> 100 µM	–	> 100 µM	> 100 µM	> 100 µM
CC(C)N1CCC2(CC1)NNc1ncccc1-n1cccc12	> 100 µM	> 100 µM	> 100 µM	> 100 µM	> 100 µM	> 100 µM	> 100 µM	> 100 µM	> 100 µM	> 100 µM	> 100 µM	> 100 µM	> 100 µM	–	> 100 µM	> 100 µM	–
CC1(C)OCC(COC(=O)NCn2cc(-c3ccccc3)nn2)O1 (centres undefined)	> 100 µM	> 100 µM	> 100 µM	> 100 µM	–	> 100 µM	> 100 µM	> 100 µM	> 100 µM	> 100 µM	> 100 µM	> 100 µM	> 100 µM	> 100 µM	> 100 µM	> 100 µM	–
O=C(NC12CC3CC(CC(C3)C1)C2)C(=O)c1c[nH]c2ccc([N+](=O)[O-])cc12	> 100 µM	> 100 µM	> 59.1 µM	> 100 µM	> 100 µM	> 100 µM	> 100 µM	> 100 µM	> 100 µM	> 100 µM	> 100 µM	43.4 µM	> 100 µM	–	> 100 µM	> 100 µM	–
COc1ccc2c(c1)CC1(O)COc3cc(OC)ccc3C1O2 (centres undefined)	> 100 µM	> 100 µM	> 100 µM	–	> 100 µM	> 100 µM	–	–	> 100 µM	> 100 µM	> 100 µM	> 100 µM	> 100 µM	> 100 µM	> 100 µM	> 100 µM	> 100 µM
CO[C@H]1C[C@H](n2cc(C)c(=O)[nH]c2=O)O[C@@H]1CO	> 100 µM	> 100 µM	> 100 µM	> 100 µM	> 100 µM	> 100 µM	> 100 µM	> 100 µM	> 100 µM	> 100 µM	> 100 µM	> 100 µM	> 100 µM	> 100 µM	> 100 µM	> 100 µM	–
COc1ccc(S(=O)(=O)Nc2ccc(-c3csc(N4C(=O)/C(=C/c5ccccc5)N=C4c4ccccc4)n3)cc2)cc1Cl	> 100 µM	> 100 µM	> 100 µM	> 100 µM	34.1 µM	–	87.4 µM	> 100 µM	> 100 µM	> 100 µM	> 100 µM	> 100 µM	> 100 µM	–	> 100 µM	> 100 µM	61.9 µM
COc1ccc(-c2nnc(-c3c(C)n(C)n(-c4ccccc4)c3=O)o2)cc1	–	> 100 µM	> 100 µM	> 100 µM	> 100 µM	> 100 µM	> 100 µM	> 100 µM	> 100 µM	> 100 µM	> 100 µM	> 100 µM	> 100 µM	–	> 100 µM	> 100 µM	–
Cc1ccc(S(=O)(=O)C2c3nc4ccccc4cc3-c3nc4ccccc4nc32)cc1 (centres undefined)	> 100 µM	> 100 µM	> 100 µM	> 100 µM	> 100 µM	> 100 µM	> 100 µM	> 100 µM	> 100 µM	> 100 µM	> 100 µM	> 100 µM	> 100 µM	–	> 100 µM	> 100 µM	–
CC(C)(C)c1cc(/C=C/C(=O)CC(=O)/C=C/c2cc(C(C)(C)C)c(O)c(C(C)(C)C)c2)cc(C(C)(C)C)c1O	> 50 µM	> 50 µM	> 50 µM	–	> 50 µM	> 50 µM	> 50 µM	> 50 µM	> 50 µM	> 50 µM	> 50 µM	> 50 µM	> 50 µM	> 50 µM	> 50 µM	> 50 µM	–
CCNc1cc2c3c(c1)CCCN3CCC2	28.2 µM	19.2 µM	28.4 µM	28.3 µM	> 100 µM	57.1 µM	35 µM	87.5 µM	63.1 µM	29.9 µM	24.5 µM	33.3 µM	> 100 µM	–	6.43 µM	49.5 µM	67.9 µM
CCC/C(Cl)=N\OC(=O)Nc1ccc(F)c([N+](=O)[O-])c1	35.2 µM	> 100 µM	34.9 µM	> 100 µM	26.6 µM	> 100 µM	–	34.2 µM	18.1 µM	32.7 µM	12 µM	29.2 µM	32 µM	22.4 µM	> 100 µM	34.2 µM	–
CC1(C)O[C@H]2OC(CO)C(OS(C)(=O)=O)[C@H]2O1 (some centres undefined)	> 100 µM	> 100 µM	> 100 µM	–	> 100 µM	> 100 µM	> 100 µM	> 100 µM	> 100 µM	> 100 µM	> 100 µM	> 100 µM	> 100 µM	–	> 100 µM	> 100 µM	> 100 µM
COc1cc2cc3c4c(cc(OC)c(OC)c4c2cc1OC)CCN3C(=O)N(C)C	> 100 µM	> 100 µM	> 100 µM	> 100 µM	> 100 µM	> 100 µM	> 100 µM	> 100 µM	> 100 µM	> 100 µM	> 100 µM	> 100 µM	> 10 µM	–	> 100 µM	> 100 µM	–
Cc1cc2c(c(C(=O)NCCC(=O)N[C@@H](C)C(=O)OCc3ccccc3)c1)Oc1c(cc(C)cc1C(=O)NCCC(=O)N[C@@H](C)C(=O)OCc1ccccc1)S2	> 100 µM	> 100 µM	> 100 µM	> 100 µM	> 100 µM	> 100 µM	–	–	> 100 µM	> 100 µM	> 100 µM	> 100 µM	–	> 100 µM	> 100 µM	> 100 µM	> 100 µM
CC(=O)Nc1ccc(-c2nnc(SCC(=O)Nc3cccc([N+](=O)[O-])c3)o2)cc1	27.1 µM	27.4 µM	45.8 µM	57.5 µM	39.8 µM	75.8 µM	58.2 µM	33.3 µM	43.7 µM	39.4 µM	33.8 µM	31.7 µM	67.5 µM	–	> 100 µM	51.4 µM	–
N#CCSc1c(-c2ccccc2)c(=O)n(-c2ccccc2)c(=S)n1-c1ccccc1	> 100 µM	> 100 µM	> 100 µM	> 100 µM	> 100 µM	> 100 µM	> 100 µM	> 100 µM	> 100 µM	> 100 µM	> 100 µM	> 100 µM	> 100 µM	–	> 100 µM	> 100 µM	> 100 µM
Clc1ccc2nc(CC3CCCC3)[nH]c2c1	24.9 µM	32 µM	32.7 µM	22.1 µM	–	50.3 µM	–	63.9 µM	32.6 µM	38.8 µM	27.9 µM	40.2 µM	70.2 µM	–	> 100 µM	> 100 µM	72.5 µM

Source: PubChem BioAssay (NCI)
